Assay results as given in paper PMC12696353, “Structural insights into endogenous agonist selectivity of aminergic receptors from the octopamine β2 receptor” (PNAS Nexus, 2025).
Substitutions are numbered along the chain they refer to. Where two headings read alike, the source gives them in different places.

Legend:
[1] = target: T1, is-octβ2R I61^1.42F mutant (Ixodes scapularis, UniProt A0ACM8E5E8, I40F); experiment: TGFα shedding assay, amitraz-resistant mutant I61^1.42F; type: cell-based; details: Table S4
T1 sequence (A0ACM8E5E8 1-384 I40F): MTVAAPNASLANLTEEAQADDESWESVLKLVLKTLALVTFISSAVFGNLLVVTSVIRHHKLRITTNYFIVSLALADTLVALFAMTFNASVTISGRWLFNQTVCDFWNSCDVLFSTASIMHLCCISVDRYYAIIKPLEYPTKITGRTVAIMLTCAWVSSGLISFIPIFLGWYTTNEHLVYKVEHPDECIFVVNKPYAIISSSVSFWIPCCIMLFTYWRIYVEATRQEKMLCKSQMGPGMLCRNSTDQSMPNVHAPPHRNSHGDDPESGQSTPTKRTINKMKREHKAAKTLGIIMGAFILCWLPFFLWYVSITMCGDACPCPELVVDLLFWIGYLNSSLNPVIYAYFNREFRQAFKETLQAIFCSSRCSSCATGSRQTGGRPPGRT
Description: (§1) The TGFα shedding assay was performed as previously described ([28]). […] The cells were transfected using lipofectamine 2000 with plasmids encoding alkaline phosphatase–tagged TGFα (AP-TGFα) (2.5 ng/mL), is-octβ2Rs (1 ng/mL), and Gαq/s (0.5 ng/mL). After 24 h, the cells were washed with phosphate-buffered saline and resuspended in Hank's balanced salt solution (HBSS) (supplemented with 5 mM HEPES [pH 7.4]). The cells (90 μL/well) were plated in a 96-well plate and incubated with 10 μL of HBSS solution containing various concentrations of compounds for 1 h at 37 °C. Following centrifugation (200 × g, 2 min), 80 μL of the supernatant was transferred to a separate 96-well plate. Subsequently, 80 µL of 2× para-nitrophenyl phosphate (pNPP) buffer (containing 10 mM pNPP in 40 mM Tris–HCl [pH 9.5], 40 mM NaCl, and 10 mM MgCl2) was added to both the supernatant and cell-containing plates. The optical density at 405 nm of both plates was measured before and after a 1 h incubation at room temperature using a microplate reader (SpectraMax iD3, Molecular Devices, San Jose, CA, United States). AP-TGFα release was calculated using the following formulas:
(§2) ΔOD405=OD450(1h)−OD405(0h)AP−TGFαinsupernatant(%)=(ΔOD405Sup/[ΔOD450Sup+ΔOD405Cell])×125AP−TGFαrelease(%)=AP−TGFαinsupernatantunderastimulatedcondition(%)−AP−TGFαinsupernatantunderavehicle−treatedcondition
(§3) where OD405 (0 h) and […] represent the OD405 before and after a 1 h incubation, respectively, and OD405Sup and OD405Cell represent the OD405 of supernatant and cell plates, respectively. For all pharmacological analyses, nonlinear regression curve fitting was performed with a 3-parameter sigmoid model (Hill coefficient = 1) using Prism 8 (GraphPad Software, La Jolla, CA, United States).

[2] = tested on: is-octβ2R Y195^5.38A mutant; experiment: TGFα shedding assay, mutant Y195^5.38A; type: cell-based, Ixodes scapularis; details: Table S6
Description: as §1
(§4) ΔOD405=OD450(1h)−OD405(0h)AP−TGFαinsupernatant(%)=(ΔOD405Sup/[ΔOD450Sup+ΔOD405Cell])×125AP−TGFαrelease(%)=AP−TGFαinsupernatantunderastimulatedcondition(%)−AP−TGFαinsupernatantunderavehicle−treatedcondition […]

[3] = tested on: is-octβ2R F303^6.51A mutant; experiment: TGFα shedding assay, mutant F303^6.51A; type: cell-based, Ixodes scapularis; details: Table S6
Description: as §1, §4

[4] = target: is-octβ2R S114^3.36A mutant (Ixodes scapularis, UniProt A0ACM8E5E8, S114A); experiment: TGFα shedding assay, mutant S114^3.36A; type: cell-based; details: Table S6
Description: as §1, §4

[5] = tested on: is-octβ2R Y332^7.43A mutant; experiment: TGFα shedding assay, mutant Y332^7.43A; type: cell-based, Ixodes scapularis; details: Table S6
Description: as §1, §4

[6] = tested on: is-octβ2R W300^6.48A mutant; experiment: TGFα shedding assay, mutant W300^6.48A; type: cell-based, Ixodes scapularis; details: Table S6
Description: as §1, §4

[7] = target: T2, is-octβ2R I62^1.43T mutant (Ixodes scapularis, UniProt A0ACM8E5E8, I41T); experiment: TGFα shedding assay, amitraz-resistant mutant I62^1.43T; type: cell-based; details: Table S4
T2 sequence (A0ACM8E5E8 1-384 I41T): T1 sequence (A0ACM8E5E8 1-384 I40F) with F40I, I41T
Description: as §1, §2, §3

[8] = target: is-octβ2R S203^5.46A mutant (Ixodes scapularis, UniProt A0ACM8E5E8, S203A); experiment: TGFα shedding assay, mutant S203^5.46A; type: cell-based
Description: as §1, §4

[9] = target: T3, is-octβ2R Y67^2.41S mutant (Ixodes scapularis, UniProt A0ACM8E5E8, Y67S); experiment: TGFα shedding assay, amitraz-resistant mutant Y67^2.41S; type: cell-based; details: Table S4
T3 sequence (A0ACM8E5E8 1-384 Y67S): T1 sequence (A0ACM8E5E8 1-384 I40F) with F40I, Y67S
Description: as §1, §2, §3

[10] = target: is-octβ2R T115^3.37A mutant (Ixodes scapularis, UniProt A0ACM8E5E8, T115A); experiment: TGFα shedding assay, mutant T115^3.37A; type: cell-based
Description: as §1, §4

[11] = target: is-octβ2R F304^6.52A mutant (Ixodes scapularis, UniProt A0ACM8E5E8, F304A); experiment: TGFα shedding assay, mutant F304^6.52A; type: cell-based; details: Table S6
Description: as §1, §4

[12] = tested on: is-octβ2R I118^3.40A mutant; experiment: TGFα shedding assay, mutant I118^3.40A; type: cell-based, Ixodes scapularis; details: Table S6
Description: as §1, §4

[13] = target: is-octβ2R F328^7.39A mutant (Ixodes scapularis, UniProt A0ACM8E5E8, F328A); experiment: TGFα shedding assay, mutant F328^7.39A; type: cell-based
Description: as §1, §4

[14] = Table S6, read-out: logEC50 (converted)

SMILES | EC50 [1] [nM] | logEC50 [2] | logEC50 [3] | EC50 [4] [nM] | logEC50 [5] | logEC50 [6] | EC50 [7] [nM] | EC50 [8, 14] [nM] | EC50 ([8]; read-out: EC50) [nM] | EC50 [9] [nM] | EC50 [10, 14] [nM] | EC50 ([10]; read-out: EC50) [nM] | EC50 [11] [nM] | logEC50 [12] | EC50 [13, 14] [nM] | EC50 ([13]; stated as a range in text, read-out: EC50) [nM]
CN/C=N/c1ccc(C)cc1C [DPMF, N-2,4-dimethylphenyl-N′-methylformamidine] | 7.94 | no activity | no activity | 251 | signal observed only at a concentration of 10^−5 M | no activity | 2 | 1.26 | 1.3 | 6.31 | 5.01 | 5 | 63.1 | no activity |  | 
NCC(O)c1ccc(O)cc1 (stereo not shown) [Octopamine, octopamine] | 7.94 | no activity | no activity |  | signal observed only at 10-5 M | no activity | 5.01 |  |  | 12.6 |  |  | 398 | no activity | 1000 | ~1000
